Values quoted from earlier work as cited in PMC4220649 (Blood Cancer Journal, 2014).

Tested on: patients with lymphoma
Settings: IV bortezomib in lymphoma; cited from earlier work

In the case of `CC(C)C[C@H](NC(=O)[C@H](Cc1ccccc1)NC(=O)c1cnccn1)B(O)O` [bortezomib], the “Grade 3 PN rates” value is given as 3–13% and the “Overall rates of PN” value is given as 17–55%.
